Reference: the Kinase Knowledgebase extract (Sharma et al. 2016)

Target: PIK3CG (human) (UniProt P48736)
Experiment: Assessment of PIK3CG Kinase Activity

Chain of PIK3CG (human) (P48736 whole entry, looked up): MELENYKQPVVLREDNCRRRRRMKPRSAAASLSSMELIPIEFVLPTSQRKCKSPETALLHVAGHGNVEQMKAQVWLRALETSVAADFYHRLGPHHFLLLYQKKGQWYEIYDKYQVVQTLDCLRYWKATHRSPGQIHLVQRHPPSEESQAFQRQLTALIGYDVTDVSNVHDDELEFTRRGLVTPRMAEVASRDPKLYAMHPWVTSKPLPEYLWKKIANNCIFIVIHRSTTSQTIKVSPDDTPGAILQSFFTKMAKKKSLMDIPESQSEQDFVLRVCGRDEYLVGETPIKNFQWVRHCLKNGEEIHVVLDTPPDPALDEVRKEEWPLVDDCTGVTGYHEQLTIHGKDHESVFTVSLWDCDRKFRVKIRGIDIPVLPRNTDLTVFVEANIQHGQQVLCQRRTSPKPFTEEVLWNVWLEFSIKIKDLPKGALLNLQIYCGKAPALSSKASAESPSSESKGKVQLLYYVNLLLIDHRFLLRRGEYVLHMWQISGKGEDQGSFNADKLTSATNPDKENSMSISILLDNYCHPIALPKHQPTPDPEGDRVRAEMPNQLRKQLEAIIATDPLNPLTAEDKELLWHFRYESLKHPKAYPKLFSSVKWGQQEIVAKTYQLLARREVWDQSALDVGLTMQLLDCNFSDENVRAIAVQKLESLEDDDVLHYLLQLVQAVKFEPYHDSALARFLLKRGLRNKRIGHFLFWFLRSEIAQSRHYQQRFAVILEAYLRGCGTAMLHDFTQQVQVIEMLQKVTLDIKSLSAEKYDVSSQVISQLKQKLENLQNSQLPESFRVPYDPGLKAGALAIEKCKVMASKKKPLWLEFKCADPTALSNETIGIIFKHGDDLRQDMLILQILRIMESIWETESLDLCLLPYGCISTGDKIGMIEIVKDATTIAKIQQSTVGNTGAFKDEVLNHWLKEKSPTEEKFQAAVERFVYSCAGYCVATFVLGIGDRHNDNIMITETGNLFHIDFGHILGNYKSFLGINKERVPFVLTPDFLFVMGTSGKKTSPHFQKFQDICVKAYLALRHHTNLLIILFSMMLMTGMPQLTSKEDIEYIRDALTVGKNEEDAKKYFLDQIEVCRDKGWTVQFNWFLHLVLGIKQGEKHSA

| Compound | IC50 [nM] |
| --- | --- |
| CN1CCC(CNC(=O)Nc2nc3c(s2)-c2nc(-c4ccccc4Cl)ncc2CC3)CC1 | < 800 |
| O=C(NCc1cc(C2CC2)n[nH]1)Nc1nc2c(s1)-c1nc(-c3ccccc3Cl)ncc1CC2 | < 800 |
| O=C(Nc1nc2c(s1)-c1nc(-c3ccccc3Cl)ncc1CC2)N1CCC(CN2CCc3ccccc3C2=O)C1 (stereo unspecified) | < 800 |
| O=C(NCc1cccc(N2CCNC2=O)c1)Nc1nc2c(s1)-c1nc(-c3ccccc3Cl)ncc1CC2 | < 800 |
| CCn1ccc(CNC(=O)Nc2nc3c(s2)-c2nc(-c4ccccc4Cl)ncc2CC3)n1 | < 800 |
| O=C(NCc1cccc(C(=O)N2CCCC2)c1)Nc1nc2c(s1)-c1nc(-c3ccccc3Cl)ncc1CC2 | < 800 |
| N#Cc1ccc(CNC(=O)Nc2nc3c(s2)-c2nc(-c4ccccc4Cl)ncc2CC3)s1 | < 800 |
| CC(C)CC(=O)Nc1cccc(CNC(=O)Nc2nc3c(s2)-c2nc(-c4ccccc4Cl)ncc2CC3)c1 | < 800 |
| CC(C)(C)OC(=O)CCNC(=O)Nc1nc2c(s1)-c1nc(-c3ccccc3Cl)ncc1CC2 | < 800 |
| O=C(Nc1nc2c(s1)-c1nc(-c3ccccc3Cl)ncc1CC2)N1CC[C@@H](NC(=O)N2CCOCC2)C1 | < 800 |
| CNC(=O)CCNC(=O)Nc1nc2c(s1)-c1nc(-c3ccccc3Cl)ncc1CC2 | < 800 |
| O=C(Nc1nc2c(s1)-c1nc(-c3ccccc3Cl)ncc1CC2)N1CC[C@H](NS(=O)(=O)N2CCCC2)C1 | < 800 |
| CS(=O)(=O)N[C@H]1CCN(C(=O)Nc2nc3c(s2)-c2nc(-c4ccccc4Cl)ncc2CC3)C1 | < 800 |
| CC(C)CN(C)C(=O)c1cccc(CNC(=O)Nc2nc3c(s2)-c2nc(-c4ccccc4Cl)ncc2CC3)c1 | < 800 |
| O=C(CCNC(=O)Nc1nc2c(s1)-c1nc(-c3ccccc3Cl)ncc1CC2)NC1CCCC1 | < 800 |
| CCc1nnc(CCNC(=O)Nc2nc3c(s2)-c2nc(-c4ccccc4F)ncc2CC3)o1 | < 800 |
| O=C(NCCN1CCNC1=O)Nc1nc2c(s1)-c1nc(-c3ccccc3Cl)ncc1CC2 | < 800 |
| NC(=O)Nc1nc2c(s1)-c1nc(-c3ccccc3Br)ncc1CC2 | < 800 |
| CS(=O)(=O)c1cccc(CNC(=O)Nc2nc3c(s2)-c2nc(-c4ccccc4Cl)ncc2CC3)c1 | < 800 |
| CC1CC(c2ccc(O)cc2)CN1C(=O)Nc1nc2c(s1)-c1nc(-c3ccccc3Cl)ncc1CC2 (stereo unspecified) | < 800 |

Further lines, results first:

| IC50 [nM] | Compound |
| --- | --- |
| < 800 | CC(C)CC(=O)N[C@H]1CCN(C(=O)Nc2nc3c(s2)-c2nc(-c4ccccc4Cl)ncc2CC3)C1 |
| < 800 | O=C(NCCc1cn[nH]c1)Nc1nc2c(s1)-c1nc(-c3ccccc3Cl)ncc1CC2 |
| < 800 | CCOCCNC(=O)Nc1nc2c(s1)-c1nc(-c3ccccc3Cl)ncc1CC2 |
| < 800 | NC(=O)c1cccc(CNC(=O)Nc2nc3c(s2)-c2nc(-c4ccccc4Cl)ncc2CC3)c1 |
| < 800 | CN(C)CCCNC(=O)Nc1nc2c(s1)-c1nc(-c3ccccc3Cl)ncc1CC2 |
| < 800 | CN(C)CCNC(=O)Nc1nc2c(s1)-c1nc(-c3ccccc3Cl)ncc1CC2 |
| < 800 | CCNC(=O)Nc1nc2c(s1)-c1nc(-c3ccccc3Cl)ncc1CC2 |
| < 800 | CC(C)(C)OCCNC(=O)Nc1nc2c(s1)-c1nc(-c3ccccc3Cl)ncc1CC2 |
| < 800 | CC(C)(C)CNC(=O)Nc1nc2c(s1)-c1nc(-c3ccccc3Cl)ncc1CC2 |
| < 800 | O=C(CCNC(=O)Nc1nc2c(s1)-c1nc(-c3ccccc3Cl)ncc1CC2)NCC1CC1 |
| < 800 | COCCN(C)C(=O)N[C@H]1CCN(C(=O)Nc2nc3c(s2)-c2nc(-c4ccccc4Cl)ncc2CC3)C1 |
| < 800 | O=C(NCc1ccccc1)Nc1nc2c(s1)-c1nc(-c3ccccc3Cl)ncc1CC2 |
| < 800 | CC(C)COC(=O)N[C@@H]1CCN(C(=O)Nc2nc3c(s2)-c2nc(-c4ccccc4Cl)ncc2CC3)C1 |
| < 800 | O=C(NC[C@@H]1CCCN1C(=O)OCc1ccccc1)Nc1nc2c(s1)-c1nc(-c3ccccc3Cl)ncc1CC2 |
| < 800 | CC(C)(C)OC(=O)N1CCC(CNC(=O)Nc2nc3c(s2)-c2nc(-c4ccccc4Cl)ncc2CC3)CC1 |
| < 800 | CCn1cnc(CCNC(=O)Nc2nc3c(s2)-c2nc(-c4ccccc4Cl)ncc2CC3)c1 |
